The text below walks through data of patent US4894377A, “β-carbolines and their use as medicinal agents” (Schering Aktiengesellschaft, priority 1983, dated 1990).

Converted amounts (≈) assume the structure as drawn.

For one test, the target named is benzodiazepine receptors. The test can be described thus: displacement of specific binding of 3H flunitrazepam in vitro (rat cerebral membrane suspension). The note with it: 50% displacement of specific binding of 3H flunitrazepam (1.0 nM, 0° C.), rat cerebrum.
In test [1] the test system is convulsions induced by pentylenetetrazole (Pentazol). Put plainly: protection from convulsions and death induced by pentylenetetrazole (Pentazol). It is filed as in vivo. The note with it: Mus musculus, ip; protects 50% of mice from convulsions and death; test compound intraperitoneal, 15-30 minutes before Pentazol. Here is the method: (§1) The compounds of this invention show, in a pharmacological test, anxiolytic, antiagressive, and anticonvulsive activities. Two testing systems were employed to examine the anticonvulsive effect. The elimination of convulsions induced, on the one hand, by pentylenetetrazole (Pentazol) and, on the other hand, by 6,7-dimethoxy-4-ethyl-β-carboline-3-carboxylic acid methyl ester (DMCM) was examined. Pentazol and DMCM, respectively, are administered 15-30 minutes after intraperitoneal administration of the test compound in an amount of 15 mg/kg as an aqueous solution (pH 7) intraperitoneally and, respectively, in an amount of 150 mg/kg as a hydrochloric acid solution (pH 2-3) subcutaneously. These quantities induce clonic and tonic convulsions leading to death in untreated animals.
(§2) The ED50 values indicated in the table were determined according to the method by Litchfield and Wilcoxon (1949) as the amount of antagonistically active compound required to protect 50% of the animals from convulsions and death.

Test [2] relates to convulsions induced by 6,7-dimethoxy-4-ethyl-β-carboline-3-carboxylic acid methyl ester (DMCM). The test can be described thus: protection from convulsions and death induced by DMCM. Format: in vivo. The conditions noted are these: Mus musculus, ip; protects 50% of mice from convulsions and death; test compound intraperitoneal, 15-30 minutes before DMCM. Here is the method: as §1, §2

Test [3] concerns clonic convulsions at 111 dB. Put plainly: audiogenic seizure test. It is filed as in vivo. The conditions noted are these: Mus musculus, ip, 0.5 h; dose at which 40% of mice show no convulsions at 111 dB (14 kHz); DBA/2 mice, intraperitoneal, 30 minutes prior. How it is done: The compounds of this invention also show a convulsion-relieving and/or convulsion-eliminating effect in the audiogenic seizure test. For this purpose, 18-21 day old male mice weighing 8-12 g (DBA/2 mice) receive intraperitoneally the compound to be tested as an ultrasound microsuspension in water/"Cremofor" EL (95:5) 30 minutes prior to testing. The animals are then exposed, in a soundproof wooden box (25×22×15 cm), to a sinusoidal sound of 14 kHz at 111 dB. The sound is generated immediately after transferring the animal into the box. Occurrence of clonic convulsions is recorded for 30 seconds. The ED50 value in the table indicates the dose at which 40% of the mice show no convulsions at 111 dB (80% of the control mice show convulsions at 111 dB).

For the compound `CCOC(=O)c1ncc2[nH]c3cccc(OCc4ccc(Cl)c(Cl)c4)c3c2c1COC` [3,4-dichloro, 5-(3,4-dichlorobenzyloxy)-4-methoxymethyl-β-carboline-3-carboxylic acid ethyl ester], the “IC50 (in vitro)” value at benzodiazepine receptors is 2.1 ng/mL (≈ 4.57 nM). The values for the ED50 in test [1] and in test [2] were 6 mg/kg and 2.2 mg/kg, respectively.
Regarding `CCOC(=O)c1ncc2[nH]c3cccc(OCc4cccc(F)c4)c3c2c1COC` [Substituent 3-fluoro, 5-(3-fluorobenzyloxy)-4-methoxymethyl-β-carboline-3-carboxylic acid ethyl ester], the “IC50 (in vitro)” value at benzodiazepine receptors is 0.3 ng/mL (≈ 0.735 nM). Besides, the 50% effective dose (ED50) in test [1] was 12 mg/kg; in test [2] it was 0.3 mg/kg; in test [3] it was 0.05 mg/kg.
Turning to `CCOC(=O)c1ncc2[nH]c3cccc(OCc4cccc(Br)c4)c3c2c1COC` [Substituent 3-bromo, 5-(3-bromobenzyloxy)-4-methoxymethyl-β-carboline-3-carboxylic acid ethyl ester], the “IC50 (in vitro)” value on benzodiazepine receptors was determined as 0.8 ng/mL (≈ 1.7 nM). In test [1], the ED50 is 6 mg/kg.
The matching figures for `CCOC(=O)c1ncc2[nH]c3cccc(OCc4ccc(C)c(C)c4)c3c2c1COC` [3,4-dimethyl, 5-(3,4-dimethylbenzyloxy)-4-methoxymethyl-β-carboline-3-carboxylic acid ethyl ester]: 1.7 ng/mL (≈ 4.06 nM) and 30 mg/kg.
For `CCOC(=O)c1ncc2[nH]c3cccc(OCc4cccc(Cl)c4)c3c2c1COC` [Substituent 3-chloro, 5-(3-chlorobenzyloxy)-4-methoxymethyl-β-carboline-3-carboxylic acid ethyl ester], the “IC50 (in vitro)” value at benzodiazepine receptors was found to be 1.4 ng/mL (≈ 3.3 nM). In addition, the values for the ED50 in test [1], in test [2] and in test [3] were 0.9 mg/kg, 0.3 mg/kg and 0.08 mg/kg, respectively.
Regarding `CCOC(=O)c1ncc2[nH]c3cccc(OCc4cccc(C(F)(F)F)c4)c3c2c1COC` [3-trifluoromethyl, 5-(3-trifluoromethylbenzyloxy)-4-methoxymethyl-β-carboline-3-carboxylic acid ethyl ester], the “IC50 (in vitro)” value on benzodiazepine receptors was found to be 1.4 ng/mL (≈ 3.05 nM). For the same compound, it took a dose of 12 mg/kg to reach the 50% effect level in test [1] (ED50).
For the compound `CCOC(=O)c1ncc2[nH]c3cccc(OCc4ccc(F)cc4)c3c2c1COC` [Substituent 4-fluoro, 5-(4-fluorobenzyloxy)-4-methoxymethyl-β-carboline-3-carboxylic acid ethyl ester], on benzodiazepine receptors, the “IC50 (in vitro)” value is 0.4 ng/mL (≈ 0.979 nM). The median effective dose (ED50) in test [1] came out at 30 mg/kg; in test [2] it was 0.1 mg/kg; in test [3], 0.2 mg/kg.
Regarding `CCOC(=O)c1ncc2[nH]c3cccc(OCCCc4ccccc4)c3c2c1COC`, on benzodiazepine receptors, the “IC50 (in vitro)” value was 1.9 ng/mL (≈ 4.54 nM). For the same compound, the ED50 in test [1] came to 30 mg/kg; in test [2], 5.5 mg/kg.
In the case of `CCOC(=O)c1ncc2[nH]c3cccc(OCc4ccccc4)c3c2c1COC`, the “IC50 (in vitro)” value at benzodiazepine receptors was 2 ng/mL (≈ 5.12 nM). Further, the values for the ED50 in test [1], in test [2] and in test [3] were 15 mg/kg, 0.6 mg/kg and 0.5 mg/kg, respectively.
`CCOC(=O)c1ncc2[nH]c3cccc(OCc4cccc(OC)c4)c3c2c1COC` [Substituent 3-methoxy, 5-(3-methoxybenzyloxy)-4-methoxymethyl-β-carboline-3-carboxylic acid ethyl ester]: the “IC50 (in vitro)” value on benzodiazepine receptors amounted to 0.5 ng/mL (≈ 1.19 nM). In test [1], the 50% effective dose (ED50) was > 100 mg/kg.
In the case of `CCOC(=O)c1ncc2[nH]c3cccc(OCc4ccc(Cl)cc4)c3c2c1COC` [Substituent 4-chloro, 5-(4-chlorobenzyloxy)-4-methoxymethyl-β-carboline-3-carboxylic acid ethyl ester], the “IC50 (in vitro)” value on benzodiazepine receptors was found to be 0.9 ng/mL (≈ 2.12 nM). Also, in test [1], the 50% effective dose (ED50) is > 30 mg/kg.
In the same order, the values of `CCOC(=O)c1ncc2[nH]c3cccc(OCCc4ccccc4)c3c2c1COC` are 0.8 ng/mL (≈ 1.98 nM) and 40 mg/kg.
In the same order, the values of `CCOC(=O)c1ncc2[nH]c3cccc(OCc4ccc([N+](=O)[O-])cc4)c3c2c1COC` [Substituent 4-nitro, 5-(4-nitrobenzyloxy)-4-methoxymethyl-β-carboline-3-carboxylic acid ethyl ester] are 0.2 ng/mL (≈ 0.459 nM) and > 50 mg/kg.
In the case of `CCOC(=O)c1ncc2[nH]c3cccc(OC(C)c4ccccc4)c3c2c1COC` (stereo not drawn) [α-methyl], the “IC50 (in vitro)” value on benzodiazepine receptors came out at 1.1 ng/mL (≈ 2.72 nM). Besides, the median effective dose (ED50) in test [1] amounted to 3 mg/kg; in test [2] it was 0.1 mg/kg; in test [3] it was 0.01 mg/kg.
As for `CCOC(=O)c1ncc2[nH]c3cccc(OCc4ccc(C)cc4)c3c2c1COC` [Substituent 4-methyl, 5-(4-methylbenzyloxy)-4-methoxymethyl-β-carboline-3-carboxylic acid ethyl ester], the “IC50 (in vitro)” value on benzodiazepine receptors worked out at 0.9 ng/mL (≈ 2.23 nM). In test [1], this compound yielded an ED50 of 30 mg/kg.
In the same order, the values of `CCOC(=O)c1ncc2[nH]c3cccc(OC(C)c4cccc(Cl)c4)c3c2c1COC` (stereo not drawn) [α-methyl, 3-chloro, 5-[1-(3-chlorophenyl)ethoxy]-4-methoxymethyl-β-carboline-3-carboxylic acid ethyl ester] are 4.3 ng/mL (≈ 9.8 nM) and 2 mg/kg.
`CCOC(=O)c1ncc2[nH]c3cccc(OCc4ccccc4F)c3c2c1COC` [Substituent 2-fluoro, 5-(2-fluorobenzyloxy)-4-methoxymethyl-β-carboline-3-carboxylic acid ethyl ester]: the “IC50 (in vitro)” value on benzodiazepine receptors amounted to 0.3 ng/mL (≈ 0.735 nM). The ED50 stood at 13 mg/kg in test [1], 0.4 mg/kg in test [2] and 0.05 mg/kg in test [3].
